For one series, the target named is Cytochrome P450 2D6 (Homo sapiens, UniProt P10635). The series can be described thus: Inhibition of CYP2D6 (unknown origin). The format is ADME.
The nature of series [1]: Fraction unbound in human plasma. In kind it is ADME, cell-free.
Series [2] deals with T1, Muscarinic acetylcholine receptor M5 (Homo sapiens) (UniProt P08912).
T1 sequence (whole entry): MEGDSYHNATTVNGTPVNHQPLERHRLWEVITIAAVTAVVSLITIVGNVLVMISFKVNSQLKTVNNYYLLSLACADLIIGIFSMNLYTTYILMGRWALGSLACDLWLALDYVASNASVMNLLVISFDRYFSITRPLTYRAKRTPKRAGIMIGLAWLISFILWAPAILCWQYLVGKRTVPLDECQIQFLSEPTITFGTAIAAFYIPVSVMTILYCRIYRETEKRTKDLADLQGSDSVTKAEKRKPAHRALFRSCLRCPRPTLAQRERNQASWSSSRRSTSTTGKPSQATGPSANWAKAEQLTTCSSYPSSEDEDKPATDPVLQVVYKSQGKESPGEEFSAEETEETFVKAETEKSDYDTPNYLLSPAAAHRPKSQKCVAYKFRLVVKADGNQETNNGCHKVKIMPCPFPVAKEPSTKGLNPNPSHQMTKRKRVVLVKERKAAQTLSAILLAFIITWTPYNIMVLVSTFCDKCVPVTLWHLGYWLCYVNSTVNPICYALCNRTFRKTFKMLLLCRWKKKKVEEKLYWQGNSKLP
The series can be described thus: Positive allosteric modulation of human M5 receptor expressed in CHOK1 cells by calcium mobilization assay. In kind it is functional, cell-based. The note with it: CHO-K1. In general terms: Calcium assays in cells follow changes in intracellular calcium, usually with a dye or a luminescent sensor.

Series [3] in a line: Fraction unbound in rat plasma. In kind it is ADME, cell-free.
Series [4] concerns the target T2, Muscarinic acetylcholine receptor M4 (Homo sapiens, UniProt P08173).
T2 sequence (P08173 whole entry): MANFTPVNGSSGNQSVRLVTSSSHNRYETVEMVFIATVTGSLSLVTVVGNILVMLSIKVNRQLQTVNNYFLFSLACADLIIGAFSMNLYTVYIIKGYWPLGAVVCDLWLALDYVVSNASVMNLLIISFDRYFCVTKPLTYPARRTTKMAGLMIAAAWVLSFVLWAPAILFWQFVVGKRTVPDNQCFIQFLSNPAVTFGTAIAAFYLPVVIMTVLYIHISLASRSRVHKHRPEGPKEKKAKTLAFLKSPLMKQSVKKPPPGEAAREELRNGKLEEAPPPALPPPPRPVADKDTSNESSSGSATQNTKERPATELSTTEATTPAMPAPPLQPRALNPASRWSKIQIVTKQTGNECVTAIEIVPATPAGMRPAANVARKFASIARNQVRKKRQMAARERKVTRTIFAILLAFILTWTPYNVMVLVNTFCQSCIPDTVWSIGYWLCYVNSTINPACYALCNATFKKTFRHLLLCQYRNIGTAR
The series can be described thus: Positive allosteric modulation of human M4 receptor expressed in CHO cells coexpressing Gqi5 by calcium mobilization assay. The format is functional, cell-based.

The next series addresses Cytochrome P450 3A4 (Homo sapiens, UniProt P08684). Nature of the series: Inhibition of CYP3A4 (unknown origin). In kind it is ADME.
Series [5] concerns the target T3, Muscarinic acetylcholine receptor M4 (Rattus norvegicus) (UniProt P08485).
T3 sequence (whole entry): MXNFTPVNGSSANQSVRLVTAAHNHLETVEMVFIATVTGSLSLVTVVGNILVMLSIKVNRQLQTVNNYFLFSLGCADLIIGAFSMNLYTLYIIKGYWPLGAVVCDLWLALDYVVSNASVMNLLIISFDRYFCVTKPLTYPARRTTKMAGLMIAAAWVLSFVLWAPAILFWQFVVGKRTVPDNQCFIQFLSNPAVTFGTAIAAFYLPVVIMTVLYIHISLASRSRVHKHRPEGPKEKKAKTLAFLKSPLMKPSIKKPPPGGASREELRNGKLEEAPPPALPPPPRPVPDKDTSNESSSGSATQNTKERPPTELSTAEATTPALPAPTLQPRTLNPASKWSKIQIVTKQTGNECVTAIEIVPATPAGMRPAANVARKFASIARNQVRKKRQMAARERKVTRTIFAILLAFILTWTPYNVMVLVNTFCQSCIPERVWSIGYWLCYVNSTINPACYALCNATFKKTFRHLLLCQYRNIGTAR
The series can be described thus: Positive allosteric modulation of rat M4 receptor expressed in CHO cells coexpressing Gqi5 by calcium mobilization assay relative to acetylcholine. The format is functional, cell-based.

The next series concerns the target T4, Cytochrome P450 1A2 (Homo sapiens, UniProt P05177).
T4 sequence (P05177 whole entry): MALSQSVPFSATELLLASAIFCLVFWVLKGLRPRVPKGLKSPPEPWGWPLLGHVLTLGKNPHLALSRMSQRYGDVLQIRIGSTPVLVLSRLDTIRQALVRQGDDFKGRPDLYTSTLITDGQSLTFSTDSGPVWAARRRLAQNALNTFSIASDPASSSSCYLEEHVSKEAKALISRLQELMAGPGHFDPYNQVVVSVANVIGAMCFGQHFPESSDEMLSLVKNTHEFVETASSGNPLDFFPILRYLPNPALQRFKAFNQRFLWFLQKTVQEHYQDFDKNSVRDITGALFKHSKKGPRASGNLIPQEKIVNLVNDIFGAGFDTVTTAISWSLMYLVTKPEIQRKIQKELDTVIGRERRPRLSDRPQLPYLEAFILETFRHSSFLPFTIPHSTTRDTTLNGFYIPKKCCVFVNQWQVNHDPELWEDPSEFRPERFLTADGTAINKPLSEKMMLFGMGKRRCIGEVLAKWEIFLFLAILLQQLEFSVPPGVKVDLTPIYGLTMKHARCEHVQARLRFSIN
The series can be described thus: Inhibition of CYP1A2 (unknown origin). In kind it is ADME.

For a further series, the target named is Cytochrome P450 2C9 (Homo sapiens, UniProt P11712). Nature of the series: Inhibition of CYP2C9 (unknown origin). The format is ADME.
Sequence of Cytochrome P450 2C9 (P11712 whole entry): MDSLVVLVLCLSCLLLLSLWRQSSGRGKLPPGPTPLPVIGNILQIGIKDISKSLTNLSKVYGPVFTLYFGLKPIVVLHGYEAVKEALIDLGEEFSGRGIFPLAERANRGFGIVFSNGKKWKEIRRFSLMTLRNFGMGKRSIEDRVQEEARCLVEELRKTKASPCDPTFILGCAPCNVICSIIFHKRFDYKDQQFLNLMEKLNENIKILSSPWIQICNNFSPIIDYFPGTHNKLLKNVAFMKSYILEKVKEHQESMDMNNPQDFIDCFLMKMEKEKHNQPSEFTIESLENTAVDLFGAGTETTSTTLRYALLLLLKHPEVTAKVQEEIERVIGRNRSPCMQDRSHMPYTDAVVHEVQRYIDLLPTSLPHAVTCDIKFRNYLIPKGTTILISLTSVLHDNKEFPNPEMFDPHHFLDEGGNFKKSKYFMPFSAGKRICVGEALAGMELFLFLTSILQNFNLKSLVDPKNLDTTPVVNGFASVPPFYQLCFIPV
Series [6] deals with T5, Muscarinic acetylcholine receptor M4 (Rattus norvegicus, UniProt P08485).
T5 sequence (P08485 whole entry): T3 sequence (whole entry)
The series can be described thus: Positive allosteric modulation of rat M4 receptor expressed in CHO cells coexpressing Gqi5 by calcium mobilization assay. The format is functional, cell-based.

Series [7] deals with T6, Muscarinic acetylcholine receptor M4 (Homo sapiens) (UniProt P08173).
T6 sequence (whole entry): T2 sequence (P08173 whole entry)
Nature of the series: Positive allosteric modulation of human M4 receptor expressed in CHO cells coexpressing Gqi5 by calcium mobilization assay relative to acetylcholine. The format is functional, cell-based.

Active and inactive are the calls of the source. The calls are words filed in the database; no cut-off is given here.

The source of these data is ChEMBL document CHEMBL3808342, “Discovery and optimization of a novel series of highly CNS penetrant M4 PAMs based on a 5,6-dimethyl-4-(piperidin-1-yl)thieno[2,3-d]pyrimidine core” (Bioorg Med Chem Lett, 2016).

Sequence of Cytochrome P450 2D6 (P10635 whole entry): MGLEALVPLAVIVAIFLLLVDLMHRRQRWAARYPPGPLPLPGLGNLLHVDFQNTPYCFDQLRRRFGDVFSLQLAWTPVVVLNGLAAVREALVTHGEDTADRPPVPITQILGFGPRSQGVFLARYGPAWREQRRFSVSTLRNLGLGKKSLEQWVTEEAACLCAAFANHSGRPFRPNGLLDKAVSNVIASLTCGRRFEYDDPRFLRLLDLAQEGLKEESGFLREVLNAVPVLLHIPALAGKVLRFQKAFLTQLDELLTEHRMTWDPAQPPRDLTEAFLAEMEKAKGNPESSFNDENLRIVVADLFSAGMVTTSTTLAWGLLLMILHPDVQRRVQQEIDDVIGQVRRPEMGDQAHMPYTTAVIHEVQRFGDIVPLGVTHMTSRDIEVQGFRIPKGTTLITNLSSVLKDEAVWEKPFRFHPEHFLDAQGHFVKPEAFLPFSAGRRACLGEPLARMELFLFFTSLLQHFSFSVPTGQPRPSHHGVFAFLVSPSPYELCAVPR
Sequence of Cytochrome P450 3A4 (P08684 whole entry): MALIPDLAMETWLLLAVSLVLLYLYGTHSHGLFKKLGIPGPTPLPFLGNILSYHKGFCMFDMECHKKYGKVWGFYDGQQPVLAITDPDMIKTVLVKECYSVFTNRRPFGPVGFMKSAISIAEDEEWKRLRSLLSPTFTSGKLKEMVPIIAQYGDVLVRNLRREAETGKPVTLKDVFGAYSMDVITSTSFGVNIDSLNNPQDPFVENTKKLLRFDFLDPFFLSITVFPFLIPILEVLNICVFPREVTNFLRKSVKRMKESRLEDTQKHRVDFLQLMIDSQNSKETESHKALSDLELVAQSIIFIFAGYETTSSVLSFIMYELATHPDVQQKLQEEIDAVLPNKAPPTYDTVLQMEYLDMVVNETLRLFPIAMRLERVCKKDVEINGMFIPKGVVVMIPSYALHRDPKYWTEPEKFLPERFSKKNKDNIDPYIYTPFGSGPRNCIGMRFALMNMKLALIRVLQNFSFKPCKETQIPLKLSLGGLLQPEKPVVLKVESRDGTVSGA

In general, IC50 refers to the midpoint of a concentration-inhibition curve. The fraction unbound is free concentration divided by total concentration. A lower fraction unbound goes with little free substance. As to `Cc1sc2ncnc(N3CCC(C(=O)Nc4ccc(S(N)(=O)=O)cc4)CC3)c2c1C`, the IC50 against Cytochrome P450 2D6 is 3400 nM; at Cytochrome P450 3A4, more than 20000 nM; on Cytochrome P450 1A2, more than 20000 nM; on Cytochrome P450 2C9, 5800 nM. Moreover, the fraction unbound in series [1] came out at 0.002; in series [3], 0.01. The result in series [2] was inactive. For the same molecule, the EC50 was 410 nM in series [4] (read-out: EC50), 1200 nM in series [4] (read-out: pEC50 (converted)) and 160 nM in [6]. Moreover, the figures for the %max in series [5] and in series [7] were 71% and 76%, respectively.
